Target: T1, EgtB (Mycolicibacterium smegmatis, UniProt A0R5N0)
T1 sequence (A0R5N0 1-428): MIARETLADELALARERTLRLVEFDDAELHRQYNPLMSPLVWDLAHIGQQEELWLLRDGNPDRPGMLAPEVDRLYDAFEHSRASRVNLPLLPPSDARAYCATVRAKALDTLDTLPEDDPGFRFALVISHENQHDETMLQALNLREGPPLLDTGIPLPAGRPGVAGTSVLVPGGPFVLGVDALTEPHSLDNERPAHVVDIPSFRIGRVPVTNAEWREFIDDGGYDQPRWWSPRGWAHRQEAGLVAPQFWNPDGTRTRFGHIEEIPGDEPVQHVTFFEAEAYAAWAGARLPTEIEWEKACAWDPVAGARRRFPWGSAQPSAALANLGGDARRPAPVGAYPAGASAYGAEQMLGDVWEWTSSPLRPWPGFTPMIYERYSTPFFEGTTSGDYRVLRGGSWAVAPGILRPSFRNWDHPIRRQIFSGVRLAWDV
Experiment: 1H-NMR assay of product […]
Format: biochemical
Conditions: co-substrate γ-Glu-Cys

Structure (SMILES): C[N+](C)(C)[C@@H](Cc1cnc[nH]1)C(=O)[O-] [compound 2, hercynine]
- 1H-NMR assay of product 3: Native EgtB reaction in ergothioneine biosynthesis

— paper PMC4166525 (Organic letters, 2013)
